Test results reported in the NIST ThermoML archive (doi:10.1016/j.jct.2018.09.010).
± gives the expanded uncertainty stated by the source.

Assay: relative permittivity at various frequencies (dimensionless); xn = mol fraction of the nth substance listed
Settings: Gas, Frequency=385 MHz, Reentrant cavity resonator

[C-]#[O+] [carbon monoxide] + O=C=O
Settings | relative permittivity
255.04 K, 1972.8 kPa, x1 = 0.7493 | 1.01697 ± 0.075
255.04 K, 3976.6 kPa, x1 = 0.7493 | 1.03607 ± 0.075
255.05 K, 3004.5 kPa, x1 = 0.4959 | 1.03119 ± 0.075
255.05 K, 5999.5 kPa, x1 = 0.7493 | 1.05751 ± 0.076
255.06 K, 1479.4 kPa, x1 = 0.4959 | 1.01417 ± 0.075
255.06 K, 1511.8 kPa, x1 = 0.4959 | 1.01451 ± 0.075
255.06 K, 2026.5 kPa, x1 = 0.7493 | 1.01747 ± 0.075
255.06 K, 3003.3 kPa, x1 = 0.4959 | 1.03118 ± 0.075
255.06 K, 4001.7 kPa, x1 = 0.4959 | 1.04416 ± 0.076
255.06 K, 5990.8 kPa, x1 = 0.7493 | 1.05742 ± 0.076
255.06 K, 7992.1 kPa, x1 = 0.7493 | 1.08067 ± 0.077
273.14 K, 1964 kPa, x1 = 0.7493 | 1.01551 ± 0.075
273.14 K, 3995.6 kPa, x1 = 0.7493 | 1.03288 ± 0.075
273.14 K, 5997.2 kPa, x1 = 0.7493 | 1.05136 ± 0.076
273.15 K, 2016.4 kPa, x1 = 0.7493 | 1.01594 ± 0.075
273.15 K, 4009 kPa, x1 = 0.7493 | 1.033 ± 0.075
273.15 K, 5997.2 kPa, x1 = 0.7493 | 1.05135 ± 0.076
273.15 K, 7991.2 kPa, x1 = 0.7493 | 1.07098 ± 0.077
273.2 K, 1454.1 kPa, x1 = 0.4959 | 1.01273 ± 0.075
273.2 K, 2480.8 kPa, x1 = 0.4959 | 1.02261 ± 0.075
273.2 K, 4502 kPa, x1 = 0.4959 | 1.0448 ± 0.076
273.2 K, 5505.6 kPa, x1 = 0.4959 | 1.05746 ± 0.076
273.21 K, 3471.2 kPa, x1 = 0.4959 | 1.03299 ± 0.075
293.23 K, 1980.8 kPa, x1 = 0.7493 | 1.0144 ± 0.075
293.23 K, 3995.9 kPa, x1 = 0.7493 | 1.02993 ± 0.075
293.23 K, 4015.8 kPa, x1 = 0.7493 | 1.0301 ± 0.075
293.23 K, 6011.2 kPa, x1 = 0.7493 | 1.04635 ± 0.076
293.23 K, 6015 kPa, x1 = 0.7493 | 1.04638 ± 0.076
293.23 K, 8001.1 kPa, x1 = 0.7493 | 1.0633 ± 0.077
293.24 K, 2023.8 kPa, x1 = 0.7493 | 1.01472 ± 0.075
293.25 K, 2039.7 kPa, x1 = 0.4959 | 1.0167 ± 0.075
293.25 K, 3988.8 kPa, x1 = 0.4959 | 1.03469 ± 0.075
293.25 K, 4025.1 kPa, x1 = 0.4959 | 1.03504 ± 0.075
293.25 K, 5986 kPa, x1 = 0.4959 | 1.05557 ± 0.076
293.26 K, 1975.2 kPa, x1 = 0.4959 | 1.01614 ± 0.075
293.26 K, 6541.1 kPa, x1 = 0.4959 | 1.06185 ± 0.076
313.26 K, 1937.1 kPa, x1 = 0.4959 | 1.01462 ± 0.075
313.26 K, 2024.1 kPa, x1 = 0.4959 | 1.0153 ± 0.075
313.26 K, 5954.7 kPa, x1 = 0.4959 | 1.04939 ± 0.076
313.26 K, 6218.2 kPa, x1 = 0.4959 | 1.0519 ± 0.076
313.27 K, 4013.4 kPa, x1 = 0.4959 | 1.03178 ± 0.075
313.28 K, 1974.2 kPa, x1 = 0.7493 | 1.01333 ± 0.075
313.28 K, 2022.8 kPa, x1 = 0.7493 | 1.01367 ± 0.075
313.28 K, 3992.7 kPa, x1 = 0.7493 | 1.02755 ± 0.075
313.28 K, 5954.9 kPa, x1 = 0.7493 | 1.04192 ± 0.076
313.28 K, 7996.5 kPa, x1 = 0.7493 | 1.05736 ± 0.076
313.29 K, 6015.3 kPa, x1 = 0.7493 | 1.04237 ± 0.076
